Test results taken from ChEMBL document CHEMBL3994657, “3,4-Dihydroquinazoline derivatives inhibit the activities of cholinesterase enzymes” (Bioorg Med Chem Lett, 2017).

Tests used:
[1] = molecular target: T1, Cholinesterase (Equus caballus, UniProt P81908); experiment: Inhibition of equine serum BCHE using butyrylthiocholine iodide as substrate preincubated for 20 mins followed by substrate addition measured for 5 mins by spectrophotometry based Ellman method
[2] = molecular target: Acetylcholinesterase (Electrophorus electricus, UniProt O42275); experiment: Inhibition of electric eel AChE using acetylthiocholine iodide as substrate preincubated for 20 mins followed by substrate addition measured for 5 mins by spectrophotometry based Ellman method
Sequence of Acetylcholinesterase (O42275 whole entry): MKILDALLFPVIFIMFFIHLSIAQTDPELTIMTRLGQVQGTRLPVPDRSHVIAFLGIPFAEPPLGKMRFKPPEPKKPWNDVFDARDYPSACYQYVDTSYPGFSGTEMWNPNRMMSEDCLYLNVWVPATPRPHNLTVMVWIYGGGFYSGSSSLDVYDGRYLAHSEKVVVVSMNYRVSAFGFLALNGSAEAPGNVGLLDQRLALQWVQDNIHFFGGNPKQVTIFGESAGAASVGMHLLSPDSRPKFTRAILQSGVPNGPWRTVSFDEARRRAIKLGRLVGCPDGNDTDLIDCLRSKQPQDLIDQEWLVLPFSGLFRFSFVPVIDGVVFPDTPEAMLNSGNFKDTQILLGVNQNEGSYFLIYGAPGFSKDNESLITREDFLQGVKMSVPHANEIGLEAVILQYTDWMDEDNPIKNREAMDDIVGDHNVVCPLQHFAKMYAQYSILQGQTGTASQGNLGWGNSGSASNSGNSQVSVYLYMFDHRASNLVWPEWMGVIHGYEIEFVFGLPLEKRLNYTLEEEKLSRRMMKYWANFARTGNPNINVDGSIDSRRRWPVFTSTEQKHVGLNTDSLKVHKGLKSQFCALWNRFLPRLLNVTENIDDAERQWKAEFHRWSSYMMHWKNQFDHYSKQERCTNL

[3] = Selectivity ratio of IC50 for electric eel AChE to IC50 for equine serum BCHE
[4] = molecular target: T1, Cholinesterase; experiment: Mixed/noncompetitive inhibition of equine serum BCHE using butyrylthiocholine iodide as substrate preincubated for 20 mins followed by substrate addition measured for 5 mins by Lineweaver-Burk plot analysis; details: read-out: Ki(app)

T1 sequence (P81908 whole entry): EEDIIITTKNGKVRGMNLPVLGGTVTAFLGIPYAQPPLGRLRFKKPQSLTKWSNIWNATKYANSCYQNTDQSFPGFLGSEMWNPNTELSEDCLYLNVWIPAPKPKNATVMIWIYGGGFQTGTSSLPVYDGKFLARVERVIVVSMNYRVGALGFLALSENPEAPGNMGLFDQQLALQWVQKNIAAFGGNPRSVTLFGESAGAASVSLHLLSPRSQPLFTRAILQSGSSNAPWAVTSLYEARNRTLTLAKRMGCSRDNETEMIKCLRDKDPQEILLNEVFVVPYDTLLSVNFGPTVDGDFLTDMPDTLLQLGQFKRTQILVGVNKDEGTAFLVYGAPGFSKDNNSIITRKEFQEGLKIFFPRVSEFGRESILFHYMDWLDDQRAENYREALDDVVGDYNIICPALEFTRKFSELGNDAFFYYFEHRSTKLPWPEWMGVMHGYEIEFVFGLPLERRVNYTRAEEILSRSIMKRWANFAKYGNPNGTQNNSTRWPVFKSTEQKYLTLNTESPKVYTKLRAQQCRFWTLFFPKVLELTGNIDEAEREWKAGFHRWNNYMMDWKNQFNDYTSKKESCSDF

SMILES | IC50 [1] [nM] | IC50 [2] [µM] | Ratio IC50 [3] | Ki [4] [nM]
O=C(CC1c2ccccc2N=C(N2CCN(CCN3CCCC3)CC2)N1c1ccc(C2CCCCC2)cc1)NCc1ccc(F)cc1 (configuration not stated) | 2130 | 8 |  | 
O=C(CC1c2ccccc2N=C(N2CCN(CCN3CCCC3)CC2)N1c1ccc(-c2ccccc2)cc1)NCc1ccc(F)cc1 (configuration not stated) | 1470 | > 10 |  | 
CN(CCCCCN)C1=Nc2ccccc2C(CC(=O)NCc2ccccc2)N1c1ccc(-c2ccccc2)cc1 (configuration not stated) | 5300 | 4.1 |  | 
COc1ccc(CNC(=O)CC2c3ccccc3N=C(N3CCN(CCN(C)C)CC3)N2c2ccc(-c3ccccc3)cc2)cc1 (configuration not stated) | 6100 | > 10 |  | 
CN(C)CCCCCN(C)C1=Nc2ccccc2C(CC(=O)NCc2ccc(F)cc2)N1c1ccc(C2CCCCC2)cc1 (configuration not stated) | 400 | 4.4 |  | 
CN(C)CCCCCN(C)C1=Nc2ccccc2C(CC(=O)NCc2ccc(F)cc2)N1c1ccc(-c2ccc(F)cc2)cc1 (configuration not stated) | 240 | 6.5 |  | 
COC(=O)CC1c2ccccc2N=C(N2CCN(C)CC2)N1C1CCCCC1 (configuration not stated) | > 10000 | ≥ 10 |  | 
COC(=O)CC1c2ccccc2N=C(N(C)CCCCCN)N1c1ccc(-c2ccccc2)cc1 (configuration not stated) | 140 | ≥ 10 |  | 
O=C(CC1c2cccc(F)c2N=C(N2CCN(CCN3CCCC3)CC2)N1c1ccc(C2CCCCC2)cc1)NCc1ccc(F)cc1 (configuration not stated) | 2040 | > 10 |  | 
CN(C)CCCCCN(C)C1=Nc2c(F)cc(F)cc2C(CC(=O)NCc2ccccc2)N1c1ccc(-c2ccccc2)cc1 (configuration not stated) | 380 | 1.2 |  | 
CN1CCN(C2=Nc3ccccc3C(CC(=O)NCc3ccccc3)N2c2ccccc2)CC1 (configuration not stated) | > 10000 | > 10 |  | 
CN(C)CCCCCN(C)C1=Nc2ccccc2C(CC(=O)NCc2ccccc2)N1c1ccc(-c2ccccc2)cc1 (configuration not stated) | 62 | ≥ 10 | 161 | 51
CN(C)CCN1CCN(C2=Nc3ccccc3C(CC(=O)NCc3ccc(F)cc3)N2c2ccc(-c3ccccc3)cc2)CC1 (configuration not stated) | 2600 | ≥ 10 |  | 
CN(CCCCCN1CCCC1)C1=Nc2ccccc2C(CC(=O)NCc2ccccc2)N1c1ccc(-c2ccccc2)cc1 (configuration not stated) | 45 | 6.6 | 146 | 29
